Assays:
barnyard grass [1] = assay: Test Example 4: herbicidal effect by soil treatment (Table 19, symbol H); assay type: in vivo, barnyard grass (Echinochloa crus-galli); conditions: amount of applied herbicide 320 g/ha
How it was run: (§1)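 Emulsion of test compound, water-diluted to predetermined amount, sprayed on soil after sowing (seed depth ~1.5 cm, sterilized diluvial soil). Greenhouse, 25–30° C. Effect graded at three weeks post-spray.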

wild oat [2] = assay: Test Example 4: herbicidal effect by soil treatment (Table 19, symbol I); assay type: in vivo, wild oat (Avena fatua); conditions: amount of applied herbicide 320 g/ha
How it was run: as §1

green foxtail [3] = assay: Test Example 5: herbicidal effect by foliage application, plastic box (Table 20, symbol G); assay type: in vivo, green foxtail (Setaria viridis); conditions: foliage application, 320 g/ha, three weeks after application
How it was run: (§2)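 Post-emergence foliar test in sterilized diluvial soil. Compound applied as water-diluted emulsion at a predetermined rate to 14-day-old plants; evaluation at three weeks.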

persian speedwell [4] = assay: Test Example 4: herbicidal effect by soil treatment (Table 19, symbol R); assay type: in vivo, Persian speedwell (Veronica persica); conditions: amount of applied herbicide 320 g/ha
How it was run: as §1

southern crabgrass [5] = assay: Test Example 5: herbicidal effect by foliage application, plastic box (Table 20, symbol F); assay type: in vivo, southern crabgrass (Digitaria ciliaris); conditions: foliage application, 320 g/ha, three weeks after application
How it was run: as §2

lambsquarters [6] = assay: Test Example 5: herbicidal effect by foliage application, plastic box (Table 20, symbol O); assay type: in vivo, lambsquarters (Chenopodium album); conditions: foliage application, 320 g/ha, three weeks after application
How it was run: as §2

redroot pigweed = assay: Test Example 4: herbicidal effect by soil treatment (Table 19, symbol N); assay type: in vivo, redroot pigweed (Amaranthus retroflexus); conditions: amount of applied herbicide 320 g/ha
How it was run: as §1

windgrass [7] = assay: Test Example 5: herbicidal effect by foliage application, plastic box (Table 20, symbol L); assay type: in vivo, windgrass (Apera spica-venti); conditions: foliage application, 320 g/ha, three weeks after application
How it was run: as §2

lambsquarters [8] = assay: Test Example 4: herbicidal effect by soil treatment (Table 19, symbol O); assay type: in vivo, lambsquarters (Chenopodium album); conditions: amount of applied herbicide 320 g/ha
How it was run: as §1

Italian ryegrass [9] = assay: Test Example 5: herbicidal effect by foliage application, plastic box (Table 20, symbol K); assay type: in vivo, Italian ryegrass (Lolium multiflorum); conditions: foliage application, 320 g/ha, three weeks after application
How it was run: as §2

blackgrass [10] = assay: Test Example 4: herbicidal effect by soil treatment (Table 19, symbol J); assay type: in vivo, blackgrass (Alopecurus myosuroides); conditions: amount of applied herbicide 320 g/ha
How it was run: as §1

wild oat [11] = assay: Test Example 5: herbicidal effect by foliage application, plastic box (Table 20, symbol I); assay type: in vivo, wild oat (Avena fatua); conditions: foliage application, 320 g/ha, three weeks after application
How it was run: as §2

barnyard grass [12] = assay: Test Example 5: herbicidal effect by foliage application, plastic box (Table 20, symbol H); assay type: in vivo, barnyard grass (Echinochloa crus-galli); conditions: foliage application, 320 g/ha, three weeks after application
How it was run: as §2

false cleavers [13] = assay: Test Example 4: herbicidal effect by soil treatment (Table 19, symbol Q); assay type: in vivo, false cleavers (Galium spurium); conditions: amount of applied herbicide 320 g/ha
How it was run: as §1

velvetleaf [14] = assay: Test Example 4: herbicidal effect by soil treatment (Table 19, symbol M); assay type: in vivo, velvetleaf (Abutilon theophrasti); conditions: amount of applied herbicide 320 g/ha
How it was run: as §1

Italian ryegrass [15] = assay: Test Example 4: herbicidal effect by soil treatment (Table 19, symbol K); assay type: in vivo, Italian ryegrass (Lolium multiflorum); conditions: amount of applied herbicide 320 g/ha
How it was run: as §1

false cleavers [16] = assay: Test Example 5: herbicidal effect by foliage application, plastic box (Table 20, symbol Q); assay type: in vivo, false cleavers (Galium spurium); conditions: foliage application, 320 g/ha, three weeks after application
How it was run: as §2

persian speedwell [17] = assay: Test Example 5: herbicidal effect by foliage application, plastic box (Table 20, symbol R); assay type: in vivo, Persian speedwell (Veronica persica); conditions: foliage application, 320 g/ha, three weeks after application
How it was run: as §2

chickweed = assay: Test Example 4: herbicidal effect by soil treatment (Table 19, symbol P); assay type: in vivo, common chickweed (Stellaria media); conditions: amount of applied herbicide 320 g/ha
How it was run: as §1

windgrass [18] = assay: Test Example 4: herbicidal effect by soil treatment (Table 19, symbol L); assay type: in vivo, windgrass (Apera spica-venti); conditions: amount of applied herbicide 320 g/ha
How it was run: as §1

Chinese sprangletop = assay: Test Example 3: herbicidal effect by foliage application, Wagner pot (Table 18, symbol D); assay type: in vivo, chinese sprangletop (Leptochloa chinensis)
How it was run: (§3)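 Plants were sown in alluvial soil held under 0.1–0.5 cm standing water and grown 14 days in a greenhouse at 25–30 °C. An emulsifiable formulation, water-diluted to the set dose, was then sprayed onto the foliage, and effects were scored three weeks later using previously defined criteria.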

blackgrass [19] = assay: Test Example 5: herbicidal effect by foliage application, plastic box (Table 20, symbol J); assay type: in vivo, blackgrass (Alopecurus myosuroides); conditions: foliage application, 320 g/ha, three weeks after application
How it was run: as §2

barnyard grass [20] = assay: Test Example 3: herbicidal effect by foliage application, Wagner pot (Table 18, symbol H); assay type: in vivo, barnyard grass (Echinochloa crus-galli)
How it was run: as §3

rice flat sedge = assay: Test Example 3: herbicidal effect by foliage application, Wagner pot (Table 18, symbol E); assay type: in vivo, rice flat sedge (Cyperus iria)
How it was run: as §3

velvetleaf [21] = assay: Test Example 5: herbicidal effect by foliage application, plastic box (Table 20, symbol M); assay type: in vivo, velvetleaf (Abutilon theophrasti); conditions: foliage application, 320 g/ha, three weeks after application
How it was run: as §2

green foxtail [22] = assay: Test Example 4: herbicidal effect by soil treatment (Table 19, symbol G); assay type: in vivo, green foxtail (Setaria viridis); conditions: amount of applied herbicide 320 g/ha
How it was run: as §1

southern crabgrass [23] = assay: Test Example 4: herbicidal effect by soil treatment (Table 19, symbol F); assay type: in vivo, southern crabgrass (Digitaria ciliaris); conditions: amount of applied herbicide 320 g/ha
How it was run: as §1

[24] = amount of applied herbicide 320 g/ha

| SMILES | H: barnyard grass, herbicidal effect grade (barnyard grass [1]) | I: wild oat, herbicidal effect grade (wild oat [2]) | herbicidal effect on green foxtail (G) (green foxtail [3]) | R: persian speedwell, herbicidal effect grade (persian speedwell [4]) | herbicidal effect on southern crabgrass (F) (southern crabgrass [5]) | herbicidal effect on lambsquarters (O) (lambsquarters [6]) | N: redroot pigweed, herbicidal effect grade (redroot pigweed) | herbicidal effect on windgrass (L) (windgrass [7]) | O: lambsquarters, herbicidal effect grade (lambsquarters [8]) | herbicidal effect on Italian ryegrass (K) (Italian ryegrass [9]) | J: blackgrass, herbicidal effect grade (blackgrass [10]) | herbicidal effect on wild oat (I) (wild oat [11]) | herbicidal effect on barnyard grass (H) (barnyard grass [12]) | Q: false cleavers, herbicidal effect grade (false cleavers [13]) | M: velvetleaf, herbicidal effect grade (velvetleaf [14]) | K: Italian ryegrass, herbicidal effect grade (Italian ryegrass [15]) | herbicidal effect on false cleavers (Q) (false cleavers [16]) | herbicidal effect on persian speedwell (R) (persian speedwell [17]) | P: chickweed, herbicidal effect grade (chickweed) | L: windgrass, herbicidal effect grade (windgrass [18]) | also measured |
| --- | --- | --- | --- | --- | --- | --- | --- | --- | --- | --- | --- | --- | --- | --- | --- | --- | --- | --- | --- | --- | --- |
| COc1cc2sc(-c3ccccc3OC)c(-c3c(O)c(C)nn(C)c3=O)c2cc1OC [5-059] | 0 (Herbicidal rate of 5% or less (almost no effect)) | 0 (Herbicidal rate of 5% or less (almost no effect)) | 4 (Herbicidal rate of 70% or more and less than 90%) | 0 (Herbicidal rate of 5% or less (almost no effect)) | 4 (Herbicidal rate of 70% or more and less than 90%) | 4 (Herbicidal rate of 70% or more and less than 90%) | 0 (Herbicidal rate of 5% or less (almost no effect)) | 4 (Herbicidal rate of 70% or more and less than 90%) | 0 (Herbicidal rate of 5% or less (almost no effect)) | 4 (Herbicidal rate of 70% or more and less than 90%) | 3 (Herbicidal rate of 40% or more and less than 70%) | 4 (Herbicidal rate of 70% or more and less than 90%) | 3 (Herbicidal rate of 40% or more and less than 70%) | 0 (Herbicidal rate of 5% or less (almost no effect)) | 0 (Herbicidal rate of 5% or less (almost no effect)) | 4 (Herbicidal rate of 70% or more and less than 90%) | 0 (Herbicidal rate of 5% or less (almost no effect)) | 4 (Herbicidal rate of 70% or more and less than 90%) | 0 (Herbicidal rate of 5% or less (almost no effect)) | 3 (Herbicidal rate of 40% or more and less than 70%) | herbicidal effect on Chinese sprangletop (D) (Chinese sprangletop; 320 g/ha): 3 (Herbicidal rate of 40% or more and less than 70%); herbicidal effect on blackgrass (J) (blackgrass [19]): 5 (Herbicidal rate of 90% or more (almost completely withered)); herbicidal effect on barnyard grass (H) (barnyard grass [20]; 320 g/ha): 5 (Herbicidal rate of 90% or more (almost completely withered)); herbicidal effect on rice flat sedge (E) (rice flat sedge; 320 g/ha): 4 (Herbicidal rate of 70% or more and less than 90%); herbicidal effect on velvetleaf (M) (velvetleaf [21]): 3 (Herbicidal rate of 40% or more and less than 70%); G: green foxtail, herbicidal effect grade (green foxtail [22]): 0 (Herbicidal rate of 5% or less (almost no effect)); F: southern crabgrass, herbicidal effect grade (southern crabgrass [23]): 0 (Herbicidal rate of 5% or less (almost no effect)) |
| COc1cc(F)ccc1-c1oc2ccccc2c1-c1c(O)c(C)nn(C)c1=O [8-001] | 0 (Herbicidal rate of 5% or less (almost no effect)) | 3 (Herbicidal rate of 40% or more and less than 70%) | 3 (Herbicidal rate of 40% or more and less than 70%) | 0 (Herbicidal rate of 5% or less (almost no effect)) | 0 (Herbicidal rate of 5% or less (almost no effect)) | 3 (Herbicidal rate of 40% or more and less than 70%) | 0 (Herbicidal rate of 5% or less (almost no effect)) | 5 (Herbicidal rate of 90% or more (almost completely withered)) | 0 (Herbicidal rate of 5% or less (almost no effect)) | 3 (Herbicidal rate of 40% or more and less than 70%) | 0 (Herbicidal rate of 5% or less (almost no effect)) | 3 (Herbicidal rate of 40% or more and less than 70%) | 3 (Herbicidal rate of 40% or more and less than 70%) | 0 (Herbicidal rate of 5% or less (almost no effect)) | 0 (Herbicidal rate of 5% or less (almost no effect)) | 0 (Herbicidal rate of 5% or less (almost no effect)) | 4 (Herbicidal rate of 70% or more and less than 90%) | 4 (Herbicidal rate of 70% or more and less than 90%) | 0 (Herbicidal rate of 5% or less (almost no effect)) | 0 (Herbicidal rate of 5% or less (almost no effect)) | Herbicidal effect on D (Chinese sprangletop), foliage application (Chinese sprangletop; [24]): 3 (Herbicidal rate of 40% or more and less than 70%); herbicidal effect on blackgrass (J) (blackgrass [19]): 0 (Herbicidal rate of 5% or less (almost no effect)); Herbicidal effect on H (barnyard grass), foliage application (barnyard grass [20]; [24]): 4 (Herbicidal rate of 70% or more and less than 90%); Herbicidal effect on E (rice flat sedge), foliage application (rice flat sedge; [24]): 1 (Herbicidal rate of 5% or more and less than 20%); herbicidal effect on velvetleaf (M) (velvetleaf [21]): 3 (Herbicidal rate of 40% or more and less than 70%); G: green foxtail, herbicidal effect grade (green foxtail [22]): 0 (Herbicidal rate of 5% or less (almost no effect)); F: southern crabgrass, herbicidal effect grade (southern crabgrass [23]): 0 (Herbicidal rate of 5% or less (almost no effect)) |
